For 42 molecules, AC50 and EC50 results are on record in ChEMBL document CHEMBL1201862, “PubChem BioAssay data set” (2004).

The target of data set [1] is T1, Cytochrome P450 1A2 (Homo sapiens, UniProt P05177).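 Also: PubChem cytochrome P450 panel assay, CYP1A2 panel member.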
T1 sequence (P05177 whole entry): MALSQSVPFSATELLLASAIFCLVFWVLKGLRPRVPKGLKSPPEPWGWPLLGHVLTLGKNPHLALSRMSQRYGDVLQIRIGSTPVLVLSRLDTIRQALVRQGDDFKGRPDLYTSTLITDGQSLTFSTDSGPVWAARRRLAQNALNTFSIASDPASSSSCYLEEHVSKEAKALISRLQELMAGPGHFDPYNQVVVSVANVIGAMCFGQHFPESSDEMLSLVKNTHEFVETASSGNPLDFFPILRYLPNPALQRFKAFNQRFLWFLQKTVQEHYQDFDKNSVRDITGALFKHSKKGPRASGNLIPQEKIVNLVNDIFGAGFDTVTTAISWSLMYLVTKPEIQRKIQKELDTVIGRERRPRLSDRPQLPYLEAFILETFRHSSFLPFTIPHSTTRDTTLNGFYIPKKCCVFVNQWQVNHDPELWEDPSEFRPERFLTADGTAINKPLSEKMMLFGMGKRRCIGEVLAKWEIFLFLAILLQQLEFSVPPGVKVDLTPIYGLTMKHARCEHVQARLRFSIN

The target of data set [2] is Cytochrome P450 2C19 (Homo sapiens, UniProt P33261). Briefly: Cytochrome panel assay with activity outcomes. Panel member name: p450-cyp2c19 Compounds with AC50 equal or less than 10 uM are considered active. In kind it is functional.
Chain of Cytochrome P450 2C19 (P33261 whole entry): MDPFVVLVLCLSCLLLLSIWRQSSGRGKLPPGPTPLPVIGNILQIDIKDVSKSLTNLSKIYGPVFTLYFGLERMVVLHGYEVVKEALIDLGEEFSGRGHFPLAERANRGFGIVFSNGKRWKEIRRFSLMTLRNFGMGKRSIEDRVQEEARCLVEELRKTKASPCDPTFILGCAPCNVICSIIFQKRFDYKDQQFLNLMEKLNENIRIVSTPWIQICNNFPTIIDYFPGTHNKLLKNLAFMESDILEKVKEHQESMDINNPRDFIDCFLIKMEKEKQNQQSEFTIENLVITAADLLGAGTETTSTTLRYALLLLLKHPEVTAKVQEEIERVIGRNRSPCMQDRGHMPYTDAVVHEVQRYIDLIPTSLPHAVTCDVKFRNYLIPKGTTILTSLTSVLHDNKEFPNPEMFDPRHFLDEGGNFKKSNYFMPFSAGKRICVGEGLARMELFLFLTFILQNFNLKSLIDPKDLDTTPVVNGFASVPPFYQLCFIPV
In data set [3] the target is Cytochrome P450 3A4 (Homo sapiens, UniProt P08684).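 Also: CYP3A4 tested as one member of a cytochrome P450 panel screen.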
Chain of Cytochrome P450 3A4 (P08684 whole entry): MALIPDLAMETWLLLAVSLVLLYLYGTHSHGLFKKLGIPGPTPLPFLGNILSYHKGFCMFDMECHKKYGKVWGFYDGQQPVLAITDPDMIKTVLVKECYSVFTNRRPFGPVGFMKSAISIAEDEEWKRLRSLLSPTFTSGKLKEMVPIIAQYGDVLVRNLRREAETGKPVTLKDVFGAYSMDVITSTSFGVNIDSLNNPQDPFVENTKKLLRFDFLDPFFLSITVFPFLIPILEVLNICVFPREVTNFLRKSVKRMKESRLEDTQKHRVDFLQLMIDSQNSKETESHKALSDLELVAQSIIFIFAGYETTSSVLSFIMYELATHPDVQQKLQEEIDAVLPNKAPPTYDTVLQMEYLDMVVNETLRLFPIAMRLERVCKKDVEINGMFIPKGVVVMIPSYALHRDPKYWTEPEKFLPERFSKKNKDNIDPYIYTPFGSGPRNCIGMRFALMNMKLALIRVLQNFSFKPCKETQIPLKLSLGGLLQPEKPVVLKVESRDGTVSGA
The target in data set [4] is T2, Protein RecA (Mycobacterium tuberculosis, UniProt P9WHJ3).
T2 sequence (P9WHJ3 whole entry): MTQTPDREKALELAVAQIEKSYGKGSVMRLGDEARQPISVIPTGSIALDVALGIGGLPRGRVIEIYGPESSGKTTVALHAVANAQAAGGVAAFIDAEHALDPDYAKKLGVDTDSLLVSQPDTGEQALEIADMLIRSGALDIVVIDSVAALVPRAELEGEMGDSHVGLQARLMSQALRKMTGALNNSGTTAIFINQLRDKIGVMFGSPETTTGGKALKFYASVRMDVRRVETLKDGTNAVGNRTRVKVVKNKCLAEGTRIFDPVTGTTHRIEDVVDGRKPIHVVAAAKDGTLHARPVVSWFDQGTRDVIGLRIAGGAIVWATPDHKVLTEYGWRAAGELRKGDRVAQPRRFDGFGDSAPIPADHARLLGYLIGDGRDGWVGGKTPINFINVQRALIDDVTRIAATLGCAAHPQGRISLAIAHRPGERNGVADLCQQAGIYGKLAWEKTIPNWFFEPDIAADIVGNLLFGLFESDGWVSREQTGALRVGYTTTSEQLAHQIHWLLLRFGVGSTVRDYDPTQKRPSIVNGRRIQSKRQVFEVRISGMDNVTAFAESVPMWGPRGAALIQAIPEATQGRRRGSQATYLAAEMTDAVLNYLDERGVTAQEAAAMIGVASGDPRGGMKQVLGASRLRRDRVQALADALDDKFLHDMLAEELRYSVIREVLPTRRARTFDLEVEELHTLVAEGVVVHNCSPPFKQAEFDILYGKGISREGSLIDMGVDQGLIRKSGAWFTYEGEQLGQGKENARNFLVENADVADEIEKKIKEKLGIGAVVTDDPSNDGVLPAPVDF
The data set is described as follows: Fluorescence Cell-Free Homogeneous Dose Retest to Identify Inhibitors of RecA-Intein Splicing Activity. [Related pubchem assays (depositor defined):AID2097, AID2223, AID489010, AID492950]. In kind it is functional.

Data set [5] has as its target T3, Replicative DNA helicase DnaB (Mycobacterium tuberculosis, UniProt P9WMR3).
T3 sequence (P9WMR3 whole entry): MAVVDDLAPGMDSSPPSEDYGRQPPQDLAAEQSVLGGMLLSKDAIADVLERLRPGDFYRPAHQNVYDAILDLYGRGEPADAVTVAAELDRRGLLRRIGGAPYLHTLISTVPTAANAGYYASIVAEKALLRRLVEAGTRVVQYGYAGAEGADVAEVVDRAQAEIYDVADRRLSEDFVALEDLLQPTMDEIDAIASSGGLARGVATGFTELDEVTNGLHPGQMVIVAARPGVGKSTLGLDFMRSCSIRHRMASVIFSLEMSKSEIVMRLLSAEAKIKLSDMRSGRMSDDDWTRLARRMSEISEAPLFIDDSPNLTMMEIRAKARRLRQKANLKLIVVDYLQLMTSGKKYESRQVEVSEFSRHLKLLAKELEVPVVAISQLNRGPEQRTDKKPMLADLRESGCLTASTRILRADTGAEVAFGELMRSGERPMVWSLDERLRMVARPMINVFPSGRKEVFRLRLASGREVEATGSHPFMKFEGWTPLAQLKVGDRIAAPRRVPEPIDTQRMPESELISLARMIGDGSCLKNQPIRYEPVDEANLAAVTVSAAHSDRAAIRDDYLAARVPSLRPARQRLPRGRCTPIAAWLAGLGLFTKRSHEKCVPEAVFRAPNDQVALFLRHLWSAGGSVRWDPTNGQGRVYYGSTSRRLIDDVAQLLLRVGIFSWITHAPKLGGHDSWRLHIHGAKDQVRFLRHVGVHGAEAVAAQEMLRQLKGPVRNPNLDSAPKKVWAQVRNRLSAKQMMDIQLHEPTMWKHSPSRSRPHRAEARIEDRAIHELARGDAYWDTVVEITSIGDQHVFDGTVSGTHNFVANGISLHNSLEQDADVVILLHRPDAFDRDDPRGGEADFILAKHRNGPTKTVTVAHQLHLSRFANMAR
Briefly: DnaB intein splicing inhibitors, dose response, biochemical, cell-free fluorescence (AID 449749). In kind it is functional.

For data set [6], the system named is Streptococcus sp. 'group A'. The data set is described as follows: growth inhibition of control SK(-) GAS strain, dose response, counter-screen for streptokinase expression inhibitor project, luminescence, kanamycin, BacTiterGlo, confirmation (AID 1900). It is filed as functional, organism-based.
In data set [7] the test system is Streptococcus. The data set is described as follows: Group A Streptococcus viability loss, dose response, counter-screen for streptokinase expression inhibitor project, luminescence, BacTiterGlo (AID 1915).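 Also: potency for reduction of bacterial viability or growth.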 It is filed as functional, organism-based.

Values joined by “and” are separate entries in the source; they are usually repeats but may differ in a detail not shown here. Equal values may be shown once. Active and inactive are the calls of the source.

For `COC(=O)COc1ccsc1C(=O)OC`, in data set [1], the AC50 is 28.2 µM (inconclusive). In the case of `Cc1cc(NC(=O)C2CCCC2)n(-c2nc3ccccc3[nH]2)n1`, in data set [2] (read-out: AC50), the AC50 was 10 µM (inconclusive). With `COc1ccc(-n2c(=O)cnc3cnc(OC)nc32)cc1`, the AC50 in data set [1] was 20 µM (inconclusive).

With `CC(C)(C)n1nc2c(c1NC(=O)c1ccc(S(=O)(=O)N3CCCCC3)cc1)C[S+]([O-])C2` (centres undefined), the AC50 in data set [3] is 14.1 µM (inconclusive); in data set [2] (read-out: AC50), 25.1 µM (inconclusive).

For `Cc1ccc(-c2nc(CN3CCCC(C(=O)N4CCOCC4)C3)c(C)o2)cc1` (centres undefined), the EC50 in data set [4] was > 380 µM (inactive). The AC50 in data set [5] is > 380 µM (inactive).

For the molecule `CN(C)c1ncc2nc(-c3cc(F)cc(F)c3)c(=O)n(C[C@H]3CCCO3)c2n1`, the AC50 in data set [1] is 0.0794 µM (inconclusive). Turning to `C[C@](N)(C(=O)O)c1ccc(-c2nnn[nH]2)cc1`, the AC50 in data set [1] was 39.8 µM (inconclusive); in data set [2] (read-out: AC50), 7.94 µM (inconclusive). Take `O=C(O)COc1ccc(/C=C2/SC(=S)N(Cc3ccccc3)C2=O)cc1`: the EC50 in data set [4] is 8.33 µM (active). For the same molecule, the AC50 in data set [5] is 13.7 µM (active).

For `CC(Oc1ccccc1)C(=O)Nc1nc2c(s1)C(=O)CC(C)(C)C2` (centres undefined), the AC50 in data set [1] was 15.8 µM (inconclusive). `COc1cccc(Cn2c(=O)cnc3cnc(Oc4ccccc4)nc32)c1`: the AC50 in data set [2] (read-out: AC50) was 5.01 µM (inconclusive).

For the molecule `Cc1noc(C)c1C(=O)N1CCC[C@@]2(CCN(C(=O)Nc3ccccc3)C2)C1`, in data set [1], the AC50 was 39.8 µM (inconclusive).

`COCCn1c(=O)c(-c2cc(F)cc(F)c2)nc2cnc(N3CCOCC3)nc21`: in data set [1], the AC50 is 12.6 µM (inconclusive). As for `CC(=O)NCCNc1ncnc2ccc(-c3c(C)noc3C)cc12`, the AC50 in data set [3] was 25.1 µM (inconclusive). In the case of `Cc1ccc(OCC(=O)NNC(=O)c2cccnc2)cc1`, the AC50 in data set [3] is 25.1 µM (inconclusive); in data set [2] (read-out: AC50), 3.16 µM (inconclusive).

On to `O=C(NC(=S)Nc1nc(-c2ccc(Br)cc2)cs1)c1cccnc1`, for which, in data set [1], the AC50 is 3.55 µM (inconclusive). Take `CC(C)C(O)(C(C)C)C(C)C`: the AC50 entry in data set [2] is on record as “inconclusive”.

With `CC(C)C12CN3CC(C(C)C)(CN(C1)C3c1ccco1)C2=O` (centres undefined), in data set [2] (read-out: AC50), the AC50 was 28.2 µM (inconclusive).

Turning to `COc1ccc(NC(=O)CSc2nc(O)cc(=O)n2-c2ccccc2)cc1`, the figures for the EC50 in data set [6] and in data set [7] were 23.1 µM (active) and 26.1 µM (active), respectively. For the molecule `CC(=O)C(Sc1ncnc2c1nnn2-c1ccc(F)cc1)C(=O)N(C)C` (centres undefined), the EC50 in data set [4] was 15.7 µM (active). In data set [5], the AC50 is 21.8 µM (active). `C#CCCCO/N=C1/C[C@@H](O)[C@@H](O)[C@@H]2[C@@H]3C(=O)N(CCC(=O)OCC)C(=O)[C@H]3CC[C@H]12`: the AC50 in data set [3] was 5.01 µM (inconclusive). For the molecule `C[C@@H](C(=O)Nc1ccc2ccccc2c1)[C@@H]1C[C@@]1(C)[C@@H](NC(=O)c1cnccn1)c1ccccc1`, the AC50 in data set [1] is 12.6 µM (inconclusive). On to `CCOc1ccc(-c2[nH]nc3c2C(c2ccc(O)cc2)C(C#N)=C(N)O3)cc1` (centres undefined), for which, in data set [4], the EC50 was 1.75 µM (active). For the same molecule, in data set [5], the AC50 is 4.62 µM (active).

On to `Nc1ccccc1S(=O)(=O)NC1=NCCCCC1`, for which, in data set [4], the EC50 is > 380 µM (inactive). For the same molecule, the AC50 in data set [5] was > 380 µM (inactive). Turning to `COc1ccc(Oc2ncc3ncc(=O)n(C)c3n2)cc1`, the half-maximal activity concentration (AC50) is 25.1 µM (inconclusive) in data set [3] and 31.6 µM (inconclusive) in data set [2] (read-out: AC50). In the case of `COc1ccc(-n2c(=O)c(C)nc3cnc(N4CCOCC4)nc32)cc1`, in data set [3], the concentration at half-maximal activity (AC50) is 31.6 µM (inconclusive). As to `OC[C@@H]1O[C@@H](n2cnc3c(NC4CCCCC4)ncnc32)[C@@H](O)[C@H]1O`, in data set [2] (read-out: AC50), the half-maximal activity concentration (AC50) was 0.0251 µM (inconclusive). Turning to `COc1cccc(Nc2ncc3nc(-c4ccc(Cl)cc4)c(=O)n(CCC#N)c3n2)c1`, the AC50 in data set [3] was 2 µM (inconclusive); in data set [1], 5.01 µM (inconclusive). With `CC1=NNC(=O)C1Oc1ccccc1` (centres undefined), in data set [4], the EC50 is 0.57 µM (active). For the same molecule, the AC50 in data set [5] is 0.737 µM (active).

With `O=c1cc(N2CCC(Cc3ccccc3)CC2)[nH]c(=O)n1C1CCCCC1`, the AC50 in data set [3] is 3.55 µM (inconclusive). Still for that read-out and setting: as for `Cc1noc(C)c1C(=O)N1CCC2(CCCN(c3ccccn3)C2)CC1`, the figure is 20 µM (inconclusive); as for `O=C1[C@H]2O[C@@H]2[C@@H](O)[C@H]2[C@H]1CCn1c(=O)n(Cc3cc4c(cc3Cl)OCO4)c(=O)n12`, 3.16 µM (inconclusive). `N#Cc1ncc(-c2ccc3c(c2)OCCOCCOCCOCCO3)nc1C#N`: in data set [4], the EC50 was 8.97 µM (active). Turning to `COc1ccc(CC(=O)O/N=C(\N)Cc2ccc(OC)cc2)cc1`, the AC50 in data set [2] (read-out: AC50) is 14.1 µM (inconclusive). Regarding `O=c1c(-c2ccc(Cl)cc2)nc2cncnc2n1Cc1ccccc1`, the AC50 is 10 µM (inconclusive) in data set [3] and 25.1 µM (inconclusive) in data set [2] (read-out: AC50). Take `COCCNc1nc(-c2cccc(NS(C)(=O)=O)c2)nc2ccccc12`: the AC50 in data set [2] (read-out: AC50) was 39.8 µM (inconclusive). On the same count and under the same terms, in the case of `O=C(C1CC(=O)N(C2CCCC2)C1)N1CCC2(CC1)OCCO2` (centres undefined) it was 39.8 µM (inconclusive). With `COC(=O)C/C=C\[C@@H](C)[C@@H](/C=N\O[C@@H](C)c1cn([C@H]2COC[C@H]2O)nn1)OC`, the AC50 result in data set [2] was “inconclusive”. Consider `SC1=NCCC12C(S)=Nc1ccccc12` (centres undefined), for which, in data set [4], the EC50 was > 380 µM (inactive). Moreover, the AC50 in data set [5] was > 380 µM (inactive). `C/C(CC(=O)Nc1ccccn1)=N\NC(=O)c1ccc(C)cc1`: the EC50 in data set [4] is 8.84 µM (active). In data set [5], the half-maximal activity concentration (AC50) was 20.4 µM (active). Turning to `CCCc1nc2ccccc2c(=O)n1/N=C/c1c(C)nn(-c2ccc(C)cc2)c1O`, the EC50 in data set [6] was 2.87 µM (active); in data set [7], 9.16 µM (active). As to `O=C(Cc1cc(O)n[nH]1)N/N=C/c1cccc(Cl)c1Cl`, in data set [4], the EC50 is 1.51 µM (active) and 1.71 µM (active). Further, the AC50 in data set [5] was 4.36 µM (active) and 2.36 µM (active).

Consider `Cn1c(-c2ccc3c(c2)OCO3)cc(=O)c2ccccc21` [GRAVEOLINE], for which the AC50 in data set [2] (read-out: AC50) was 2 µM (inconclusive).
